Data on 13 molecules can be found in patent publication US7173022B2, “Bicyclic heterocycles as HIV integrase inhibitors” (priority 2004, dated 2007).

What is called IC50 is the concentration at which inhibition is half-maximal.

For this experiment, the target named is T1, HIV-integrase (Human immunodeficiency virus type 1 group M subtype B, UniProt P12497).
T1 construct: Recombinant integrase (0.26 ng) was incubated with the beads
Kind of experiment: HIV-Integrase Inhibition Activity (SPA bead strand transfer assay). The following applies: recombinant integrase, biotin labeled substrate DNA on SPA beads, P33 labeled target DNA. The format is biochemical. The protocol: HIV-Integrase InhibitionActivity. To evaluate in-vitro activity against HIV-integrase, 5 pmole of biotin labeled substrate DNA was bound to 100 μg of Streptavidin coated PVT SPA beads (Amersham Pharmacia Biotech). Recombinant integrase (0.26 ng) was incubated with the beads for 90 min at 37° C. Unbound enzyme was removed by washing the complex followed by addition of inhibitors and 0.1 fmol of P33 labeled target DNA. The reaction was stopped by adding EDTA to a final concentration of 10 mM. Samples were counted in TopCountNXT (Packard) and the CPM was used as a measure of integration. The reaction condition was as described in A. Engelman and R. Craigie, J. Virol 69, 5908–5911 (1995). The sequences of substrate and target DNA were described in Nucleic Acid Research 22, 1121–1122 (1994).
As for `CC1(C)CCn2c1nc(C(=O)NCc1ccc(F)cc1)c(O)c2=O` [Example 1, N-(4-Fluorobenzyl)-3-hydroxy-8,8-dimethyl-4-oxo-4,6,7,8-tetrahydropyrrolo[1,2-a]pyrimidine-2-carboxamide], the IC50 was in the range of 2 to 9 nM.
With `CC1(C)CCCCn2c1nc(C(=O)NCc1ccc(F)cc1-n1cncn1)c(O)c2=O` [Example 13, N-(4-Fluoro-2-(1H-1,2,4-triazol-1-yl)benzyl)-3-hydroxy-10,10-dimethyl-4-oxo-4,6,7,8,9,10-hexahydropyrimido[1,2-a]azepine-2-carboxamide], the half-maximal inhibitory concentration (IC50) was 2 to 9 nM.
Next, `CNC(=O)c1cc(F)ccc1CNC(=O)c1nc2n(c(=O)c1O)CCC2(C)C` [Example 2, N-(4-Fluoro-2-(methylcarbamoyl)benzyl)-3-hydroxy-8,8-dimethyl-4-oxo-4,6,7,8-tetrahydropyrrolo[1,2-a]pyrimidine-2-carboxamide]: 10 to 49000 nM; `O=C(NCc1ccc(Cl)c(Cl)c1)c1nc2n(c(=O)c1O)CCC=C2c1ccccc1` [Example 7, N-(3,4-Dichlorobenzyl)-3-hydroxy-4-oxo-9-phenyl-6,7-dihydro-4H-pyrido[1,2-a]pyrimidine-2-carboxamide]: 2 to 9 nM; `CC1(C)CCCn2c1nc(C(=O)NCc1ccc(F)cc1)c(O)c2=O` [Example 4, 3-Hydroxy-9,9-dimethyl-4-oxo-6,7,8,9-tetrahydro-4H-pyrido[1,2-a]pyrimidine-2-carboxylic acid 4-fluoro-benzylamide]: 2 to 9 nM.
Next, `CNC(=O)c1cc(F)ccc1CNC(=O)c1nc2n(c(=O)c1O)CCC=C2c1cccnc1` [Example 11, N-(4-Fluoro-2-(methylcarbamoyl)benzyl)-3-hydroxy-4-oxo-9-(pyridin-3-yl)-6,7-dihydro-4H-pyrido[1,2-a]pyrimidine-2-carboxamide]: 2 to 9 nM; `O=C(NCc1ccc(F)cc1)c1nc2n(c(=O)c1O)CCC=C2c1ccccc1` [Example 8, N-(4-Fluorobenzyl)-3-hydroxy-4-oxo-9-phenyl-6,7-dihydro-4H-pyrido[1,2-a]pyrimidine-2-carboxamide]: 2 to 9 nM; `CC1(C)CCCCn2c1nc(C(=O)NCc1ccc(F)cc1)c(O)c2=O` [Example 12, N-(4-Fluorobenzyl)-3-hydroxy-10,10-dimethyl-4-oxo-4,6,7,8,9,10-hexahydropyrimido[1,2-a]azepine-2-carboxamide]: 2 to 9 nM.
Next, `CC1(C)CCn2c1nc(C(=O)NCc1ccc(F)cc1-n1cncn1)c(O)c2=O` [Example 3, N-(4-fluoro-2-(1H-1,2,4-triazol-1-yl)benzyl)-3-hydroxy-8,8-dimethyl-4-oxo-4,6,7,8-tetrahydropyrrolo[1,2-a]pyrimidine-2-carboxamide]: 2 to 9 nM.
As for `CC1(C)CCCn2c1nc(C(=O)NCc1ccc(F)cc1-n1cncn1)c(O)c2=O` [Example 6, N-(4-Fluoro-2-(1H-1,2,4-triazol-1-yl)benzyl)-3-hydroxy-9,9-dimethyl-4-oxo-6,7,8,9-tetrahydro-4H-pyrido[1,2-a]pyrimidine-2-carboxamide], the IC50 lay within 2 to 9 nM.
Next, `O=C(NCc1ccc(F)cc1)c1nc2n(c(=O)c1O)CCC=C2c1cccnc1` [Example 10, N-(4-Fluorobenzyl)-3-hydroxy-4-oxo-9-(pyridin-3-yl)-6,7-dihydro-4H-pyrido[1,2-a]pyrimidine-2-carboxamide]: 2 to 9 nM; `CNC(=O)c1cc(F)ccc1CNC(=O)c1nc2n(c(=O)c1O)CCC=C2c1ccccc1` [Example 9, N-(4-Fluoro-2-(methylcarbamoyl)benzyl)-3-hydroxy-4-oxo-9-phenyl-6,7-dihydro-4H-pyrido[1,2-a]pyrimidine-2-carboxamide]: 2 to 9 nM.
Turning to `CNC(=O)c1cc(F)ccc1CNC(=O)c1nc2n(c(=O)c1O)CCCC2(C)C` [Example 5, N-(4-Fluoro-2-(methylcarbamoyl)benzyl)-3-hydroxy-9,9-dimethyl-4-oxo-6,7,8,9-tetrahydro-4H-pyrido[1,2-a]pyrimidine-2-carboxamide], the half-inhibitory concentration (IC50) lay within 2 to 9 nM.
